Reference: PubChem BioAssay (NCI)
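Here, GI50 denotes the concentration required for 50% inhibition of growth. At the TGI there is no net growth.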

How the values were obtained:
Assay in all cases: growth of human tumour cells (NCI), 384-well format
A498 renal = system: A498 renal
A549 NSCLC = system: A549 NSCLC
ACHN renal = system: ACHN renal
BT-549 breast = system: BT-549 breast
CAKI-1 renal = system: CAKI-1 renal
COLO 205 colon = system: COLO 205 colon
DU-145 prostate = system: DU-145 prostate
EKVX NSCLC = system: EKVX NSCLC
HCC-2998 colon = system: HCC-2998 colon
HCT-116 colon = system: HCT-116 colon
HCT-15 colon = system: HCT-15 colon
HL-60(TB) leukemia = system: HL-60(TB) leukemia
HOP-62 NSCLC = system: HOP-62 NSCLC
HOP-92 NSCLC = system: HOP-92 NSCLC
HS 578T breast = system: HS 578T breast
HT29 colon = system: HT29 colon
IGROV1 ovarian = system: IGROV1 ovarian
KM12 colon = system: KM12 colon
LOX IMVI melanoma = system: LOX IMVI melanoma
M14 melanoma = system: M14 melanoma
MALME-3M melanoma = system: MALME-3M melanoma
MCF7 breast = system: MCF7 breast
MDA-MB-231 breast = system: MDA-MB-231 breast
MDA-MB-435 melanoma = system: MDA-MB-435 melanoma
MDA-MB-468 breast = system: MDA-MB-468 breast
MOLT-4 leukemia = system: MOLT-4 leukemia
NCI-H226 lung = system: NCI-H226 lung
NCI-H23 lung = system: NCI-H23 lung
NCI-H322M lung = system: NCI-H322M lung
NCI-H460 NSCLC = system: NCI-H460 NSCLC
NCI-H522 lung = system: NCI-H522 lung
NCI/ADR-RES ovarian = system: NCI/ADR-RES ovarian
OVCAR-3 ovarian = system: OVCAR-3 ovarian
OVCAR-4 ovarian = system: OVCAR-4 ovarian
OVCAR-5 ovarian = system: OVCAR-5 ovarian
OVCAR-8 ovarian = system: OVCAR-8 ovarian
PC-3 prostate = system: PC-3 prostate
RPMI-8226 leukemia = system: RPMI-8226 leukemia
RXF 393 renal = system: RXF 393 renal
SF-268 CNS = system: SF-268 CNS
SF-295 CNS = system: SF-295 CNS
SF-539 CNS = system: SF-539 CNS
SK-MEL-28 melanoma = system: SK-MEL-28 melanoma
SK-MEL-5 melanoma = system: SK-MEL-5 melanoma
SK-OV-3 ovarian = system: SK-OV-3 ovarian
SN12C renal = system: SN12C renal
SNB-19 CNS = system: SNB-19 CNS
SNB-75 CNS = system: SNB-75 CNS
SR leukemia = system: SR leukemia
T-47D breast = system: T-47D breast
TK-10 renal = system: TK-10 renal
U251 glioblastoma = system: U251 glioblastoma
UACC-257 melanoma = system: UACC-257 melanoma
UACC-62 melanoma = system: UACC-62 melanoma

SMILES: O=C(CCCCCCNC(=O)c1cnc(N(c2ccccc2)c2ccccc2)nc1)NO
- GI50 (A498 renal): 3.49 µM
- TGI (A498 renal): 16.2 µM
- GI50 (A549 NSCLC): 10.1 µM
- TGI (A549 NSCLC): 25 µM
- GI50 (ACHN renal): 7.93 µM
- TGI (ACHN renal): 22.1 µM
- GI50 (BT-549 breast): 3.08 µM
- TGI (BT-549 breast): 13.3 µM
- GI50 (CAKI-1 renal): 4.36 µM
- TGI (CAKI-1 renal): 16.6 µM
- GI50 (COLO 205 colon): 2 µM
- TGI (COLO 205 colon): 3.9 µM
- GI50 (DU-145 prostate): 2.18 µM
- TGI (DU-145 prostate): 5.88 µM
- GI50 (EKVX NSCLC): 11.3 µM
- TGI (EKVX NSCLC): 43.8 µM
- GI50 (HCC-2998 colon): 2.7 µM
- TGI (HCC-2998 colon): 8.93 µM
- GI50 (HCT-116 colon): 2.79 µM
- TGI (HCT-116 colon): 10.5 µM
- GI50 (HCT-15 colon): 13 µM
- TGI (HCT-15 colon): 41.6 µM
- GI50 (HL-60(TB) leukemia): 2.36 µM
- TGI (HL-60(TB) leukemia): 3.82 µM
- GI50 (HOP-62 NSCLC): 2.31 µM
- TGI (HOP-62 NSCLC): 10.3 µM
- GI50 (HOP-92 NSCLC): 3.26 µM
- TGI (HOP-92 NSCLC): 13.4 µM
- GI50 (HS 578T breast): 1.97 µM
- TGI (HS 578T breast): 6.37 µM
- GI50 (HT29 colon): 3.14 µM
- TGI (HT29 colon): 13.2 µM
- GI50 (IGROV1 ovarian): 2.13 µM
- TGI (IGROV1 ovarian): 6.57 µM
- GI50 (KM12 colon): 3.53 µM
- TGI (KM12 colon): 16.1 µM
- GI50 (LOX IMVI melanoma): 1.97 µM
- TGI (LOX IMVI melanoma): 4.3 µM
- GI50 (M14 melanoma): 3.7 µM
- TGI (M14 melanoma): 14.8 µM
- GI50 (MALME-3M melanoma): 1.49 µM
- TGI (MALME-3M melanoma): 5.49 µM
- GI50 (MCF7 breast): 2.18 µM
- TGI (MCF7 breast): 11.8 µM
- GI50 (MDA-MB-231 breast): 2.19 µM
- TGI (MDA-MB-231 breast): 6.61 µM
- GI50 (MDA-MB-435 melanoma): 2.38 µM
- TGI (MDA-MB-435 melanoma): 5.28 µM
- GI50 (MDA-MB-468 breast): 1.5 µM
- TGI (MDA-MB-468 breast): 4.12 µM
- GI50 (MOLT-4 leukemia): 1.34 µM
- TGI (MOLT-4 leukemia): 2.62 µM
- GI50 (NCI-H226 lung): 10.7 µM
- TGI (NCI-H226 lung): 26.2 µM
- GI50 (NCI-H23 lung): 4.27 µM
- TGI (NCI-H23 lung): 21.2 µM
- GI50 (NCI-H322M lung): 3.52 µM
- TGI (NCI-H322M lung): 16.9 µM
- GI50 (NCI-H460 NSCLC): 2.22 µM
- TGI (NCI-H460 NSCLC): 11.3 µM
- GI50 (NCI-H522 lung): 2.14 µM
- TGI (NCI-H522 lung): 8.63 µM
- GI50 (NCI/ADR-RES ovarian): 8.89 µM
- TGI (NCI/ADR-RES ovarian): 84.1 µM
- GI50 (OVCAR-3 ovarian): 2.01 µM
- TGI (OVCAR-3 ovarian): 8.19 µM
- GI50 (OVCAR-4 ovarian): 3.22 µM
- TGI (OVCAR-4 ovarian): 13 µM
- GI50 (OVCAR-5 ovarian): 1.84 µM
- TGI (OVCAR-5 ovarian): 4.8 µM
- GI50 (OVCAR-8 ovarian): 2.12 µM
- TGI (OVCAR-8 ovarian): 13.9 µM
- GI50 (PC-3 prostate): 2.52 µM
- TGI (PC-3 prostate): 8.1 µM
- GI50 (RPMI-8226 leukemia): 0.573 µM
- TGI (RPMI-8226 leukemia): 1.81 µM
- GI50 (RXF 393 renal): 4.37 µM
- TGI (RXF 393 renal): 17.4 µM
- GI50 (SF-268 CNS): 2.86 µM
- TGI (SF-268 CNS): 10.1 µM
- GI50 (SF-295 CNS): 4.5 µM
- TGI (SF-295 CNS): 15.6 µM
- GI50 (SF-539 CNS): 5.25 µM
- TGI (SF-539 CNS): 22.4 µM
- GI50 (SK-MEL-28 melanoma): 3.23 µM
- TGI (SK-MEL-28 melanoma): 12.8 µM
- GI50 (SK-MEL-5 melanoma): 2.02 µM
- TGI (SK-MEL-5 melanoma): 4.16 µM
- GI50 (SK-OV-3 ovarian): 2.92 µM
- TGI (SK-OV-3 ovarian): 14.1 µM
- GI50 (SN12C renal): 2.48 µM
- TGI (SN12C renal): 8.92 µM
- GI50 (SNB-19 CNS): 3.59 µM
- TGI (SNB-19 CNS): 12.9 µM
- GI50 (SNB-75 CNS): 4.65 µM
- TGI (SNB-75 CNS): 30.3 µM
- GI50 (SR leukemia): 0.323 µM
- TGI (SR leukemia): 1.2 µM
- GI50 (T-47D breast): 1.73 µM
- TGI (T-47D breast): 4.32 µM
- GI50 (TK-10 renal): 3.37 µM
- TGI (TK-10 renal): 12.5 µM
- GI50 (U251 glioblastoma): 1.85 µM
- TGI (U251 glioblastoma): 4.3 µM
- GI50 (UACC-257 melanoma): 1.07 µM
- TGI (UACC-257 melanoma): 5.12 µM
- GI50 (UACC-62 melanoma): 1.55 µM
- TGI (UACC-62 melanoma): 4.13 µM
